From patent US9402821B2, “Methods and pharmaceutical compositions for treatment of cystic fibrosis” (INSERM (Institut National de la sante et de la Recherche …, priority 2012, dated 2016)
“Also recorded” adds a separate entry of the source. Like-named read-outs stand apart in the source and are kept apart here.

Columns and labels:
cyclooxygenase = conditions: cited from earlier work
[1] = test system: NF-κB transcriptional activity; assay: NF-κB firefly luciferase reporter assay, TNFα-stimulated cells; type: cell-based; conditions: TNFα 10 ng/ml
Method: All cells were transiently transfected by NF-κB firefly luciferase reporter and renilla luciferase reference. A. HeLa control cells (Ctr) were pre-treated with diluent (0.5%) or different doses of sulindac for 1 h and stimulated for 1 h with 10 ng/ml TNFα. After removal of TNFα, cells were incubated for 4 h with sulindac. Luciferase activity was analysed in protein extract. The NF-κB transcriptional activity in cells treated with sulindac+TNFα was expressed in percent of diluent+TNFα. B. Hela cells Wt, DF508 and Ctr were pre-treated with diluent (0.5%), ibuprofen (500 μM) or sulindac (500 μM) for 1 h and stimulated for 1 h with […] TNFα. After removal of TNFα, cells were incubated for 4 h with pharmacological treatment. The NF-κB transcriptional activity in cells treated with ibuprofen+TNFα and sulindac+TNFα was expressed in percent of diluent+TNFα. Results of at least three independent experiments, means±SEM. Unilateral paired t test: * p<0.02
All cells were pre-treated with diluent (0.5%), sulindac ([…]) or sulindac sulfone (250 μM) for 1 h and stimulated for 1 h with 10 ng/ml TNFα. […]
Plasmid Constructs and Transient Transfection To assay the transcriptional activity of NF-κB, pNF-κBLuc, a luciferase reporter plasmid containing five sequential NF-κB binding sites upstream of a minimum promoter element, NF-κB-Luc (Stratagene), was used. Transcriptional activity of the IL-8 promoter was evaluated with reporter constructs consisting of the IL-8 promoter (−133 bp from the transcription start site) fused to the Luciferase gene, kindly provided by Naofumi Mukaida. […]
(§1) Cells were lysed with the Passive Lysis Buffer (Promega), and luciferase activity in the cellular extracts was determined by the Dual Luciferase Assay System (Promega) using a luminometer (Tristar; Berthold). The results were normalized to those obtained with the Renilla luciferase reference plasmid used to control the transfection efficiency, and the values were expressed as luminescence intensity (Luciferase/Renilla). […]
The transcriptional activity of NF-κB and IL-8 promoter was measured as described before. […]

IL-8 promoter = IL-8 promoter luciferase reporter / IL-8 mRNA qPCR, TNFα-stimulated cells; type: cell-based; conditions: 250 μM; TNFα 10 ng/ml; HeLa CFTR wt and CFTR DF508 (FIG. 8B)
Method: Cells were transiently transfected by the short IL-8 promoter-firefly luciferase reporter and renilla luciferase reference and inflammation was induced by 10 ng/ml TNFα for 1 h. A. HeLa cells were pre-treated with diluent or different doses of sulindac 1 h before inflammation induction and 4 h after. IL-8 promoter activity in cells treated with sulindac+TNFα was expressed in percent of diluent+TNFα. B. After treatment, HeLa Ctr cells were lysed with TRIzol (Invitrogen). Total RNA was extracted, and 1 μg of total RNA was reverse transcribed with a reverse transcription kit. IL-8 mRNA expression was quantified by real-time quantitative PCR (qPCR). The comparative threshold cycle (CT) method was used for relative quantification of PCR products after IL-8 was normalised to TBP (ΔCt=CtIL-8−CtTBP). […] C After treatment, IL-8 in supernatant was measured by ELISA. The IL-8 stimulation of cells treated with test drug +TNFα were expressed as fold compared to drug −TNFα. […]
as §1

[2] = test system: NF-κB transcriptional activity; conditions: CF cells; recent study [5]; cited from earlier work
IL-8 production = conditions: CF cells; recent study [5]; cited from earlier work
CFTR = CFTR (Homo sapiens, UniProt P13569); assay: CFTR maturation by Western blot of membrane extracts; type: cell-based; design: expressed in transfected cells; conditions: 500 μM
Chain of CFTR (P13569 whole entry): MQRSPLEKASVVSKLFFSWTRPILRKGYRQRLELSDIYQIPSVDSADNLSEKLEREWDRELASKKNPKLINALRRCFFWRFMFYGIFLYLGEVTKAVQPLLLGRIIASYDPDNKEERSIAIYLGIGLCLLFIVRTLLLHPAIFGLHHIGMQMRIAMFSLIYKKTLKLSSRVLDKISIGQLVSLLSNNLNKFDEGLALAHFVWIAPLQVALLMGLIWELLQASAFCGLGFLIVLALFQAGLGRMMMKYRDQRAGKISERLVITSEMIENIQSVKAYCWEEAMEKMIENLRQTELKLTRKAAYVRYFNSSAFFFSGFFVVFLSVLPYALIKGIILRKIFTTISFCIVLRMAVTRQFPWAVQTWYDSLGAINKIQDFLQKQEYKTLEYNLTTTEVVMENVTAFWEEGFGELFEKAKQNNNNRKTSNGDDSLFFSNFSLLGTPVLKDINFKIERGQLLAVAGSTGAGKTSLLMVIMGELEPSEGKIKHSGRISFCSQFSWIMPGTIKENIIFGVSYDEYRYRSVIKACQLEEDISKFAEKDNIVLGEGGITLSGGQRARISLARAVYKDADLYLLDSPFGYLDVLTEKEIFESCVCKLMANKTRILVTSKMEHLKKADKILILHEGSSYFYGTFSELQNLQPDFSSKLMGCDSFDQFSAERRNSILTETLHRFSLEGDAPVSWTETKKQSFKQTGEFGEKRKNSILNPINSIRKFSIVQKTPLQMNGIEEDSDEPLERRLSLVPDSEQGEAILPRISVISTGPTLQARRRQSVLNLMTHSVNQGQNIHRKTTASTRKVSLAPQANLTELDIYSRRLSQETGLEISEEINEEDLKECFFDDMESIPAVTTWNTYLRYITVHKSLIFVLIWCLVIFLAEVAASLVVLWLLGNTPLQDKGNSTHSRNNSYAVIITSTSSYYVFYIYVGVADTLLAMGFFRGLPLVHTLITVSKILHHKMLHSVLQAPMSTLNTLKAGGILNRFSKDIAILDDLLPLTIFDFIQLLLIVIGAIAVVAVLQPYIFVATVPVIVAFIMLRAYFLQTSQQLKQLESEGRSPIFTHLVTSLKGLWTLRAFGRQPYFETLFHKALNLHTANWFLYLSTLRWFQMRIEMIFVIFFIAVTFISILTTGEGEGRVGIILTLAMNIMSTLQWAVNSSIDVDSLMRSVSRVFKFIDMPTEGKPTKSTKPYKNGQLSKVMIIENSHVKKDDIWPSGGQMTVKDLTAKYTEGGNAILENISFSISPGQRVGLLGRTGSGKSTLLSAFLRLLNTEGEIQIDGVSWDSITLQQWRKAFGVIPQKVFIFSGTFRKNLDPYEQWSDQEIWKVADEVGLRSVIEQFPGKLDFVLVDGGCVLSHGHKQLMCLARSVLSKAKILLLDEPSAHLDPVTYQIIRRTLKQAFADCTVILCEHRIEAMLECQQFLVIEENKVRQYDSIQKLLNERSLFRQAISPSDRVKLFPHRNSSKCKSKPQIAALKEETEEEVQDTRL
Method: B. Chloride activity in HeLa Wt cells was measured by MQAE assay, after 3 h of treatment by NSAID (500 μM) or diluent. CFTR activity was expressed in rate of UFA/sec, calculated by difference between ((Ft−F0)/t) with CFTR induction and ((Ft−F0)/t) without CFTR induction. […] C. Primary culture of human nasal epithelial cell (HNEC) grown on Snapwell filters (air-liquid interface) were exposed basolaterally to sulindac (500 μM) or vehicle for 2 h and immediately mounted into a voltage-clamp system to bioelectric measurements. Short circuit current was measured with addition of amiloride to evaluated amiloride sensitive transport or with forskolin and IBMX for induced cAMP-dependent Cl secretion.
To study the CFTR protein present at the cell membrane, a protocol of purification by differential centrifugations was used. CFTR wt and delta F508 HeLa cells (2×10^5 cells/cm^2) were lysed with hypotonic lysis buffer (10 mM de KCl, 1 mM de MgCl2, 10 mM Hepes pH 7, 4 and protease inhibitor). Mechanic lysis of cells was realized with minimum 10 strokes of a 26G syringe. Samples were centrifuged 10 min at 3000 g to eliminate cellular fragments and nuclear fraction in the pellet. Then supernatant was centrifuged 45 min at 50 000 g. The pellets with cellular membrane were resolubilized in RIPA buffer.
Aliquots of membrane cell extracts (30 μg protein) were separated by 7% SDS-PAGE and transferred on PVDF membrane. The western blots were probed with mouse monoclonal antibodies specific for CFTR (MM13-4, Millipore) 2 h at room temperature.

Ratio CFTR C/C + B (%) (CFTR; HeLa CFTR WT, Ctr. 65.1)	Compound	inhibition of cyclooxygenase (cyclooxygenase)	NF-κB transcriptional activity ([1]; 250 μM, HeLa CFTR wt and CFTR DF508 (FIG. 8A))	IL-8 promoter activity (IL-8 promoter)	transcriptional activity of NF-κB [2]	IL-8 production (IL-8 production)	transcriptional activity of NF-κB ([1]; BEAS-2B and HeLa cells with wt or deltaF508-CFTR (FIGS. 1A, B))	mature form of CFTR (Western blot) (CFTR; WT-CFTR HeLa cells)
–	C=S(C)(=O)c1ccc(/C=C2/C(C)=C(CC(=O)O)c3cc(F)ccc32)cc1 (stereo not drawn) [sulindac sulfone]	inactif on COX; also recorded: does not inhibit cyclooxygenase	inhibits the transcriptional activity of NF-κB	at least as effective as sulindac; also recorded: inhibits	–	–	–	–
–	CSc1ccc(/C=C2/C(C)=C(CC(=O)O)c3cc(F)ccc32)cc1 [sulindac sulfide]	inhibits cyclooxygenase activity	–	–	–	–	–	–
80.6%	CC(C)Cc1ccc(C(C)C(=O)O)cc1 (stereo not drawn) [ibuprofen]	–	–	–	inhibits the transcriptional activity of NF-κB	not accompanied by a decreased of IL-8 production	inhibits transcriptional activity of NF-κB similar to ibuprofen	significant increase of mature form of CFTR
